Legend:
Assay type in all cases: functional, cell-based
Ca9-22 = assay: cells; conditions: Homo sapiens;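 note: growth inhibition of Ca9-22 cells, read out with a cell viability assay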
Description: SANGER: Inhibition of human Ca9-22 cell growth in a cell viability assay.

Calu-3 = assay: cells; conditions: Homo sapiens;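 note: growth inhibition of human Calu-3 cells, determined with a cell viability assay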
Description: SANGER: Inhibition of human Calu-3 cell growth in a cell viability assay.

D-336MG = assay: cells; conditions: Homo sapiens
Description: SANGER: Inhibition of human D-336MG cell growth in a cell viability assay.

D-392MG = assay: cells; conditions: Homo sapiens
D-542MG = assay: cells; conditions: Homo sapiens
Description: SANGER: Inhibition of human D-542MG cell growth in a cell viability assay.

EFO-27 = assay: cells; conditions: Homo sapiens;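 note: growth inhibition of EFO-27 cells, read out with a cell viability assay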
Description: SANGER: Inhibition of human EFO-27 cell growth in a cell viability assay.

HCC1395 = assay: cells; conditions: Homo sapiens;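 note: growth inhibition of HCC1395 cells, read out by a cell viability assay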
Description: SANGER: Inhibition of human HCC1395 cell growth in a cell viability assay.

HO-1-N-1 = assay: cells; conditions: Homo sapiens;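 note: growth inhibition of human HO-1-N-1 cells, read out with a cell viability assay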
Description: SANGER: Inhibition of human HO-1-N-1 cell growth in a cell viability assay.

HPAF-II = assay: cells; conditions: Homo sapiens;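 note: growth inhibition of HPAF-II cells, read out with a cell viability assay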
Description: SANGER: Inhibition of human HPAF-II cell growth in a cell viability assay.

HT55 = assay: cells; conditions: Homo sapiens;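 note: cell viability readout measuring growth inhibition of human HT55 cells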
Description: SANGER: Inhibition of human HT55 cell growth in a cell viability assay.

IM-9 = assay: SANGER: Inhibition of human IM-9 cell growth in a cell viability assay.
IMR-5 = assay: cells; conditions: Homo sapiens;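 note: growth inhibition of human IMR-5 cells, read out with a cell viability assay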
Description: SANGER: Inhibition of human IMR-5 cell growth in a cell viability assay.

KARPAS-422 = assay: cells; conditions: Homo sapiens
Description: SANGER: Inhibition of human KARPAS-422 cell growth in a cell viability assay.

KYSE-180 = assay: cells; conditions: Homo sapiens;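 note: growth inhibition of KYSE-180 cells, read out with a cell viability assay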
Description: SANGER: Inhibition of human KYSE-180 cell growth in a cell viability assay.

KYSE-70 cell line = assay: cells; conditions: Homo sapiens;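 note: cell viability assay read-out, with IC50 expressing suppression of KYSE-70 cell growth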
Description: SANGER: Inhibition of human KYSE-70 cell growth in a cell viability assay.

LCLC-103H cell line = assay: cells; conditions: Homo sapiens
Description: SANGER: Inhibition of human LCLC-103H cell growth in a cell viability assay.

LP-1 = assay: cells; conditions: Homo sapiens;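 note: growth inhibition of human LP-1 cells, with the read-out taken from a cell viability assay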
Description: SANGER: Inhibition of human LP-1 cell growth in a cell viability assay.

LU-165 = assay: cells; conditions: Homo sapiens
Description: SANGER: Inhibition of human LU-165 cell growth in a cell viability assay.

LoVo = assay: cells; conditions: Homo sapiens;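 note: growth inhibition of human LoVo cells, read out with a cell viability assay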
Description: SANGER: Inhibition of human LoVo cell growth in a cell viability assay.

MDA-MB-361 = assay: cells; conditions: Homo sapiens
MDA-MB-415 = assay: cells; conditions: Homo sapiens
ME-180 = assay: cells; conditions: Homo sapiens;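 note: cell viability assay measuring growth inhibition of ME-180 cells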
Description: SANGER: Inhibition of human ME-180 cell growth in a cell viability assay.

MFE-280 = assay: cells; conditions: Homo sapiens;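 note: growth inhibition of MFE-280 cells, determined with a cell viability readout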
Description: SANGER: Inhibition of human MFE-280 cell growth in a cell viability assay.

MKN-28 = assay: cells; conditions: Homo sapiens;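 note: cell viability assay read-out, IC50 reflects suppression of growth of human MKN-28 cells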
Description: SANGER: Inhibition of human MKN28 cell growth in a cell viability assay.

MONO-MAC-6 = assay: cells; conditions: Homo sapiens;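 note: cell viability assay measuring growth inhibition of human MONO-MAC-6 cells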
Description: SANGER: Inhibition of human MONO-MAC-6 cell growth in a cell viability assay.

NCI-H1437 = assay: cells; conditions: Homo sapiens;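 note: growth inhibition of human NCI-H1437 cells, read out by a cell viability assay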
Description: SANGER: Inhibition of human NCI-H1437 cell growth in a cell viability assay.

NCI-H1703 = assay: cells; conditions: Homo sapiens;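 note: growth inhibition of NCI-H1703 cells, read out via a cell viability assay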
Description: SANGER: Inhibition of human NCI-H1703 cell growth in a cell viability assay.

NCI-H1755 = assay: cells; conditions: Homo sapiens;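 note: cell viability readout used to measure growth inhibition of NCI-H1755 cells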
Description: SANGER: Inhibition of human NCI-H1755 cell growth in a cell viability assay.

NCI-H1963 = assay: cells; conditions: Homo sapiens;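 note: cell growth inhibition of the human line, determined with a cell viability assay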
Description: SANGER: Inhibition of human NCI-H1963 cell growth in a cell viability assay.

NCI-H2087 = assay: cells; conditions: Homo sapiens;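 note: growth inhibition determined with a cell viability readout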
Description: SANGER: Inhibition of human NCI-H2087 cell growth in a cell viability assay.

NCI-H2122 = assay: cells; conditions: Homo sapiens;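 note: growth inhibition of the cells, read out with a cell viability assay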
Description: SANGER: Inhibition of human NCI-H2122 cell growth in a cell viability assay.

NCI-H2452 = assay: cells; conditions: Homo sapiens;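 note: growth inhibition of NCI-H2452 cells, read out with a cell viability assay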
Description: SANGER: Inhibition of human NCI-H2452 cell growth in a cell viability assay.

NCI-H292 = assay: cells; conditions: Homo sapiens;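 note: growth inhibition of NCI-H292 cells, read out with a cell viability assay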
Description: SANGER: Inhibition of human NCI-H292 cell growth in a cell viability assay.

NCI-H358 = assay: cells; conditions: Homo sapiens;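 note: growth inhibition of NCI-H358 human cells, read out with a cell viability assay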
Description: SANGER: Inhibition of human NCI-H358 cell growth in a cell viability assay.

NCI-H522 = assay: cells; conditions: Homo sapiens;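 note: cell viability assay measuring growth inhibition of human NCI-H522 cells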
Description: SANGER: Inhibition of human NCI-H522 cell growth in a cell viability assay.

NCI-H719 = assay: cells; conditions: Homo sapiens;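 note: growth inhibition of the cultured cell line, read out with a viability assay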
Description: SANGER: Inhibition of human NCI-H719 cell growth in a cell viability assay.

NCI-H810 = assay: cells; conditions: Homo sapiens;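 note: IC50 reflects inhibition of cancer cell line growth, read out with a cell viability assay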
Description: SANGER: Inhibition of human NCI-H810 cell growth in a cell viability assay.

OE33 = assay: cells; conditions: Homo sapiens;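 note: growth inhibition of human OE33 cells, measured by a cell viability assay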
Description: SANGER: Inhibition of human OE33 cell growth in a cell viability assay.

PC-14 = assay: cells; conditions: Homo sapiens;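 note: cell viability assay measuring inhibition of PC-14 cell growth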
Description: SANGER: Inhibition of human PC-14 cell growth in a cell viability assay.

RD = assay: cells; conditions: Homo sapiens
Description: SANGER: Inhibition of human RD cell growth in a cell viability assay.

RPMI-7951 = assay: cells; conditions: Homo sapiens
Description: SANGER: Inhibition of human RPMI-7951 cell growth in a cell viability assay.

RT-112 = assay: cells; conditions: Homo sapiens
Description: SANGER: Inhibition of human RT-112 cell growth in a cell viability assay.

SCC-4 = assay: cells; conditions: Homo sapiens;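 note: growth inhibition of human SCC-4 cells, read out as cell viability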
Description: SANGER: Inhibition of human SCC-4 cell growth in a cell viability assay.

SF-295 = assay: cells; conditions: Homo sapiens;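 note: growth inhibition of SF-295 cells, read out with a cell viability assay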
Description: SANGER: Inhibition of human SF295 cell growth in a cell viability assay.

SK-LU-1 = assay: cells; conditions: Homo sapiens;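 note: cell viability assay measuring growth inhibition of human SK-LU-1 cells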
Description: SANGER: Inhibition of human SK-LU-1 cell growth in a cell viability assay.

SU-DHL-1 = assay: SANGER: Inhibition of human SU-DHL-1 cell growth in a cell viability assay.
SUP-T1 = assay: cells; conditions: Homo sapiens;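 note: growth inhibition of human SUP-T1 cells, read out as cell viability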
Description: SANGER: Inhibition of human SUP-T1 cell growth in a cell viability assay.

SW1463 = assay: cells; conditions: Homo sapiens;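 note: growth inhibition of SW1463 cells, determined with a cell viability assay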
Description: SANGER: Inhibition of human SW1463 cell growth in a cell viability assay.

SW-620 = assay: cells; conditions: Homo sapiens;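 note: growth inhibition of human SW-620 cells, measured by a cell viability assay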
Description: SANGER: Inhibition of human SW620 cell growth in a cell viability assay.

SW837 = assay: cells; conditions: Homo sapiens;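 note: growth inhibition of SW837 cells, determined with a cell viability assay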
Description: SANGER: Inhibition of human SW837 cell growth in a cell viability assay.

SW948 = assay: cells; conditions: Homo sapiens;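 note: growth inhibition of SW948 cells, read out with a cell viability assay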
Description: SANGER: Inhibition of human SW948 cell growth in a cell viability assay.

5637 = assay: cells; conditions: Homo sapiens
Description: SANGER: Inhibition of human 5637 cell growth in a cell viability assay.

639-V = assay: cells; conditions: Homo sapiens;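 note: growth inhibition of 639-V cells, read out with a cell viability assay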
Description: SANGER: Inhibition of human 639-V cell growth in a cell viability assay.

8505C = assay: cells; conditions: Homo sapiens
Description: SANGER: Inhibition of human 8505C cell growth in a cell viability assay.

A 172 = assay: cells; conditions: Homo sapiens;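 note: growth inhibition of A172 cells, measured with a cell viability readout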
Description: SANGER: Inhibition of human A172 cell growth in a cell viability assay.

ABC-1 = assay: cells; conditions: Homo sapiens;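 note: growth inhibition of human ABC-1 cells, read out by a cell viability assay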
Description: SANGER: Inhibition of human ABC-1 cell growth in a cell viability assay.

AGS = assay: cells; conditions: Homo sapiens;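 note: growth inhibition of AGS cells, determined with a cell viability assay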
Description: SANGER: Inhibition of human AGS cell growth in a cell viability assay.

BEN = assay: cells; conditions: Homo sapiens;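 note: growth inhibition of the BEN cell line, read out with a cell viability assay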
Description: SANGER: Inhibition of human BEN cell growth in a cell viability assay.

BFTC-909 = assay: cells; conditions: Homo sapiens
Description: SANGER: Inhibition of human BFTC-909 cell growth in a cell viability assay.

BOKU = assay: cells; conditions: Homo sapiens;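 note: growth inhibition of the human BOKU cell line, read out by a cell viability assay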
Description: SANGER: Inhibition of human BOKU cell growth in a cell viability assay.

BT-20 = assay: cells; conditions: Homo sapiens;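 note: cell viability assay measuring suppression of growth in human BT-20 cells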
Description: SANGER: Inhibition of human BT-20 cell growth in a cell viability assay.

TYK-nu = assay: cells; conditions: Homo sapiens;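 note: growth inhibition of human TYK-nu cells, read out by a cell viability assay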
Description: SANGER: Inhibition of human TYK-nu cell growth in a cell viability assay.

UACC-62 = assay: cells; conditions: Homo sapiens;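 note: growth inhibition of human UACC-62 cells, read out by a cell viability assay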
Description: SANGER: Inhibition of human UACC-62 cell growth in a cell viability assay.

Compound `CC(C)=CC[C@@H](O)C1=CC(=O)c2c(O)ccc(O)c2C1=O` [SHIKONIN] has an IC50 (Ca9-22) of 581 nM, an IC50 (Calu-3) of 1110 nM and an IC50 (D-336MG) of 1750 nM. The IC50 (D-392MG) was 915 nM, the IC50 (D-542MG) was 581 nM and the IC50 (EFO-27) was 330 nM. It also gave an IC50 (HCC1395) of 15700 nM, an IC50 (HO-1-N-1) of 462 nM and an IC50 (HPAF-II) of 1270 nM. The IC50 (HT55) was 1690 nM, the IC50 (IM-9) was 3410 nM and the IC50 (IMR-5) was 589 nM. The IC50 (KARPAS-422) was greater than 16000 nM, the IC50 (KYSE-180) was 1010 nM and the IC50 (KYSE-70 cell line) was 2420 nM. For the same compound, the IC50 (LCLC-103H cell line) was 346 nM, the IC50 (LP-1) was 686 nM and the IC50 (LU-165) was 634 nM. For the same compound, the IC50 (LoVo) was 1340 nM, the IC50 (MDA-MB-361) was 1730 nM and the IC50 (MDA-MB-415) was 2280 nM. It also gave an IC50 (ME-180) of 279 nM, an IC50 (MFE-280) of 4950 nM and an IC50 (MKN-28) of 617 nM. The IC50 (MONO-MAC-6) was 245 nM, the IC50 (NCI-H1437) was 1560 nM and the IC50 (NCI-H1703) was 2300 nM. The IC50 (NCI-H1755) was greater than 16000 nM, the IC50 (NCI-H1963) was 100 nM and the IC50 (NCI-H2087) was 441 nM. For the same compound, the IC50 (NCI-H2122) was greater than 16000 nM, the IC50 (NCI-H2452) was greater than 16000 nM and the IC50 (NCI-H292) was 853 nM. The IC50 (NCI-H358) was 658 nM, the IC50 (NCI-H522) was 560 nM and the IC50 (NCI-H719) was 2610 nM. The IC50 (NCI-H810) was 503 nM, the IC50 (OE33) was 1810 nM and the IC50 (PC-14) was 1510 nM. The IC50 (RD) was 449 nM, the IC50 (RPMI-7951) was 156 nM and the IC50 (RT-112) was 70.4 nM. For the same compound, the IC50 (SCC-4) was 441 nM, the IC50 (SF-295) was 664 nM and the IC50 (SK-LU-1) was 750 nM. For the same compound, the IC50 (SU-DHL-1) was 499 nM, the IC50 (SUP-T1) was 1820 nM and the IC50 (SW1463) was 8610 nM. It also gave an IC50 (SW-620) of 359 nM, an IC50 (SW837) greater than 16000 nM and an IC50 (SW948) of 11900 nM. For the same compound, the IC50 5637 was greater than 16000 nM, the IC50 (639-V) was 265 nM and the IC50 (8505C) was 3100 nM. The IC50 (A 172) was 470 nM, the IC50 (ABC-1) was 707 nM and the IC50 (AGS) was 613 nM. It also gave an IC50 (BEN) of 814 nM, an IC50 (BFTC-909) of 3630 nM and an IC50 (BOKU) of 1870 nM. For the same compound, the IC50 (BT-20) was 2560 nM, the IC50 (TYK-nu) was 1150 nM and the IC50 (UACC-62) was 1230 nM.
